Data from paper PMC3440348, “Identification of Novel Human Dipeptidyl Peptidase-IV Inhibitors of Natural Origin (Part I): Virtual Screening and Activity Assays” (PLoS ONE, 2012).

Target: T1, DPP-IV (dipeptidyl peptidase-IV) (Homo sapiens, UniProt P27487)
T1 construct: gene DPP4; commercial recombinant human DPP-IV
Assay: fluorimetric DPP-IV inhibition assay (H-Gly-Pro-AMC), dose-response
Type: biochemical

T1 sequence (P27487 39-766): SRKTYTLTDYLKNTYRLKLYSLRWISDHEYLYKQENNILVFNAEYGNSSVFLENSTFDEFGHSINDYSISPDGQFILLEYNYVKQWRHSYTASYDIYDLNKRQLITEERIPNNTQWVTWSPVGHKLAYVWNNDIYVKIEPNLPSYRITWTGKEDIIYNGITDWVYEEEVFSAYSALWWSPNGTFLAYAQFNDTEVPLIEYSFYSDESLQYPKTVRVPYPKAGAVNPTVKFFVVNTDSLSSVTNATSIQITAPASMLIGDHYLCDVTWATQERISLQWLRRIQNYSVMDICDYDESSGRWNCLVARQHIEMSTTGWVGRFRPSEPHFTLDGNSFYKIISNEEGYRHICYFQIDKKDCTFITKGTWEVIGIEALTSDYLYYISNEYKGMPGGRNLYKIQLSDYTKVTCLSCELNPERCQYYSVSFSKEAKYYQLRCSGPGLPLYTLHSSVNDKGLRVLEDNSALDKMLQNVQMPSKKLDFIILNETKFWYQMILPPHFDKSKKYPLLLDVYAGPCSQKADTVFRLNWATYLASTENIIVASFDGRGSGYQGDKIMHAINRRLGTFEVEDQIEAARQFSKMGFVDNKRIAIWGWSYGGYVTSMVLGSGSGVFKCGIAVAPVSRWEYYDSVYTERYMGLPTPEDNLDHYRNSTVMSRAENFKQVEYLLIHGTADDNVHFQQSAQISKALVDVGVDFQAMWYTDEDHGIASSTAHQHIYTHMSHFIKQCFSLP

Q: How did the IC50 turn out when `CCCCN(C)Cc1c(O)ccc2c(-c3cc4ccccc4oc3=O)cc(=O)oc12` [C5, ZINC02132035] was run?
A: Its IC50 is 61.6 µM.
